Data as given in paper PMC7799360, “Reprogramming immunosuppressive myeloid cells facilitates immunotherapy for colorectal cancer” (EMBO Molecular Medicine, 2020).

Columns and labels:
[1] = molecular target: T1, human EP2 (Homo sapiens, UniProt P43116); assay: PGE2-induced calcium flux assay in CHO-Gα16 cells; format: cell-based
T1 construct: host or cells: CHO-Gα16

[2] = molecular target: T2, ADRA1B (Homo sapiens, UniProt P35368); assay: GPCR calcium flux assay; format: cell-based
T2 construct: Pharmaron (Beijing, China) performed the assay

[3] = molecular target: T3, AT1 (Homo sapiens, UniProt P30556); assay: GPCR calcium flux assay; format: cell-based
T3 construct: Pharmaron (Beijing, China), contract laboratory

[4] = molecular target: T4, CHRM1 (Homo sapiens, UniProt P11229); assay: GPCR calcium flux assay; format: cell-based
T4 construct: Pharmaron (Beijing, China), contract laboratory

[5] = molecular target: T5, CHRM3 (Homo sapiens, UniProt P20309); assay: GPCR calcium flux assay; format: cell-based
T5 construct: Pharmaron (Beijing, China), contract laboratory

[6] = molecular target: T6, DRD1 (Homo sapiens, UniProt P21728); assay: GPCR calcium flux assay; format: cell-based
T6 construct: Pharmaron (Beijing, China), contract laboratory

[7] = molecular target: T7, OPRD1 (Homo sapiens, UniProt P41143); assay: GPCR calcium flux assay; format: cell-based
T7 construct: Pharmaron (Beijing, China), contract laboratory

[8] = molecular target: T8, OPRK1 (Homo sapiens, UniProt P41145); assay: GPCR calcium flux assay; format: cell-based
T8 construct: Pharmaron (Beijing, China), contract laboratory

[9] = molecular target: T9, OPRM1 (Homo sapiens, UniProt P35372); assay: GPCR calcium flux assay; format: cell-based
T9 construct: Pharmaron (Beijing, China), contract laboratory

[10] = system: CT26 tumors; assay: CT26 tumors in BALB/c nude mice; format: in vivo, mouse; conditions: 75 mg/kg
Procedure: (§1) Syngeneic mouse tumor‐bearing models were established as described previously (Tan et al., 2018). Tumor cells (5 × 10^5 ‐ 2 × 10^6) were suspended in 100 μl PBS and implanted subcutaneously into the flank of mice. Mice were randomized into different treatment groups when tumor volumes reached 100‐200 mm^3. V = L×W^2 × 0.52, where L is the longest diameter, and W is the shortest diameter. Tumor size and body weight were recorded every second or third day. Mouse survival was analyzed using the Kaplan–Meier method.
(§2) Single agent or combination treatment was designed as follows: TP‐16 (37.5, 75, 150 mg/kg) or celecoxib (100 mg/kg) was formulated in 0.5% carboxymethylcellulose sodium (CMC‐Na, Sangon Biotech, Shanghai, China) and administered via oral gavage daily. In vivo anti‐PD1 antibody (clone RMP1‐14, BioXCell, West Lebanon, NH, USA) and rat IgG2a isotype control (clone 2A3, BioXCell) were diluted in sterile PBS and administered intraperitoneally at a dose of 50 μg twice weekly.

[11] = system: 4T1 tumors; assay: 4T1 breast cancer model in BALB/c mice; format: in vivo, mouse; conditions: 4T1, BALB/c mice, 75 mg/kg p.o. daily
Procedure: as §1, §2

[12] = system: DLD1; assay: Cell viability (MTS); format: cell-based, human; conditions: DLD1, 100 µM
Text: (§3) The murine colon cancer (CT26), murine breast cancer (4T1), and human colon cancer (HCT116, HCT8, HT29, and DLD1) cell lines were obtained from American Type Culture Collection (ATCC). The murine cell lines of melanoma (B16F10), pancreatic cancer (Pan02), and colon cancer (MC38), Chinese hamster ovary (CHO) cell line, and human embryonic kidney cell lines (HEK293 and HEK293T) were purchased from the National Infrastructure of Cell Line Resource (Shanghai, China). Primary human endothelial cells (HUVECs) were kindly provided by Dr. Xinli Wang (Baylor College of Medicine, Houston, TX, USA) and cultured in endothelial cell medium (ScienCell, San Diego, CA, USA) according to the manufacturer’s instructions. The CHO‐Gα16 cell line was established in our previous study and maintained in DMEM/F12 medium containing puromycin (4 μg/ml) (Wu et al., 2018). Cell lines were maintained in vendor recommended growth medium supplemented with 10% FBS (Gibco, Waltham, MA, USA) and 1% penicillin/streptomycin solution (Gibco) at 37°C ins a humidified atmosphere (5% CO2). All cell lines were authenticated using short tandem repeat analysis. All cell lines were confirmed to be mycoplasma‐free by polymerase chain reaction (PCR) analysis. Cell viability was determined using CellTiter 96 ® Aqueous One Solution (Promega, Madison, WI).
(§4) Appendix Figure S1. […]. The cytotoxicity curves
(§5) . Mouse cancer cells: CT26
(§6) . Human colon cancer cells: HCT116 (E),
(§7) HCT8 (F), HT29 (G) and DLD1 (H). Human normal cell line: HUVECs (I). Cell
(§8) viability was measured by MTS. Data are presented as mean ± SEM derived
(§9) from three independent experiments (n=3).
(§10) (1 picture or pasted object on this page, not shown here)

[13] = system: HCT116; assay: Cell viability (MTS); format: cell-based, human; conditions: HCT116, 100 µM
Text: as §3, §4, §5, §6, §7, §8, §9, §10

[14] = system: HCT8; assay: Cell viability (MTS); format: cell-based, human; conditions: HCT8, 100 µM
Text: as §3, §4, §5, §6, §7, §8, §9, §10

[15] = system: HT29; assay: Cell viability (MTS); format: cell-based, human; conditions: HT29, 100 µM
Text: as §3, §4, §5, §6, §7, §8, §9, §10

[16] = system: HUVEC; assay: Cell viability (MTS); format: cell-based, human; conditions: 100 µM
Text: as §3, §4, §5, §6, §7, §8, §9, §10

[17] = system: AOM/DSS-induced colorectal tumors; assay: AOM/DSS-induced colorectal cancer model; format: in vivo, mouse; conditions: AOM/DSS mice, TP-16 75 mg/kg po daily, anti-PD-1 50 μg ip twice weekly, 5 weeks
Procedure: ; i.p.; Sigma‐Aldrich, St. Louis, MO, USA). After 1 week of rest, mice were provided with 2.5% DSS (MP Biomedicals, Santa Ana, CA, USA) in their drinking water for 5 days, followed by DSS‐free water for two weeks. The DSS treatment cycle was carried out three times in total, and mice were randomized into four groups and subjected to the therapeutic protocol. Mice were sacrificed at 37 days after the indicated treatments.
as §2

[18] = molecular target: CB1 (Homo sapiens, UniProt P21554); assay: LANCE Ultra cAMP assay
Chain of CB1 (P21554 whole entry, species assumed): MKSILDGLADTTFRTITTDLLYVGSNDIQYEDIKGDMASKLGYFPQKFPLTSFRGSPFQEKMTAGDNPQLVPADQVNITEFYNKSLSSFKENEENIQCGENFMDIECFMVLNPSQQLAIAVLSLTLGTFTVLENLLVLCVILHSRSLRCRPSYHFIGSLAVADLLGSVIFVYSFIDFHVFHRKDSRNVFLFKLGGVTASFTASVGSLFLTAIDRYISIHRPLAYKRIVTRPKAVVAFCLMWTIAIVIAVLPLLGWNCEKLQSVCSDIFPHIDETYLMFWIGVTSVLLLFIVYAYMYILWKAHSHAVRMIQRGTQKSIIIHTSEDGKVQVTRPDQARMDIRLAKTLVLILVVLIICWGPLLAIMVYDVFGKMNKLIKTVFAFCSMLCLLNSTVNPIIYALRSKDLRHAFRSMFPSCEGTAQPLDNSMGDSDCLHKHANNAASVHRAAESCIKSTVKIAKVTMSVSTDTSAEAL

T9 sequence (P35372 whole entry, species assumed): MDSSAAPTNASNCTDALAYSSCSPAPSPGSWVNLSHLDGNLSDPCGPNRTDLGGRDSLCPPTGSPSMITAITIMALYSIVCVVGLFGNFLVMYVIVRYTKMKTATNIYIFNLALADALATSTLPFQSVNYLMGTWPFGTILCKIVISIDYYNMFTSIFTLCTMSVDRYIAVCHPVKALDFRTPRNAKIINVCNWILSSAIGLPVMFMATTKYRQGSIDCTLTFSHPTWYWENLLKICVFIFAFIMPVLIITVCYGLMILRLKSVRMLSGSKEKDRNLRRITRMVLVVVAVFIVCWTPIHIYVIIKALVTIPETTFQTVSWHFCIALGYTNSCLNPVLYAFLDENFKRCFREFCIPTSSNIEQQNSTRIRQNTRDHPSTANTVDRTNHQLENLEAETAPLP
T5 sequence (P20309 whole entry, species assumed): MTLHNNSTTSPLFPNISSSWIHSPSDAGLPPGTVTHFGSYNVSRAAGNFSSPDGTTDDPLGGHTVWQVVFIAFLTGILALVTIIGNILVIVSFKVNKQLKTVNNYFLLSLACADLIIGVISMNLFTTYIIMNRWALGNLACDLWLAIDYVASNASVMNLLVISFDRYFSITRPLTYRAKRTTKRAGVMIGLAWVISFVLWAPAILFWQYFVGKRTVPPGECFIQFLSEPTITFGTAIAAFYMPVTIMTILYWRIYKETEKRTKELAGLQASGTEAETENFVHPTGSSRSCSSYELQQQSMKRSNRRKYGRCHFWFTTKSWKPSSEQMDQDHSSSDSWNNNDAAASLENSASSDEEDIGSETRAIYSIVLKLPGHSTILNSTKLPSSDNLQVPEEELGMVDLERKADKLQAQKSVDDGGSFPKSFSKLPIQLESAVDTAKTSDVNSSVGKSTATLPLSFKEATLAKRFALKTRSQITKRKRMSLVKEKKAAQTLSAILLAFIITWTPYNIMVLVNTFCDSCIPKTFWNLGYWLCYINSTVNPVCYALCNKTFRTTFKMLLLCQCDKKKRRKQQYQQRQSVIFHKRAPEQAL
T8 sequence (P41145 whole entry, species assumed): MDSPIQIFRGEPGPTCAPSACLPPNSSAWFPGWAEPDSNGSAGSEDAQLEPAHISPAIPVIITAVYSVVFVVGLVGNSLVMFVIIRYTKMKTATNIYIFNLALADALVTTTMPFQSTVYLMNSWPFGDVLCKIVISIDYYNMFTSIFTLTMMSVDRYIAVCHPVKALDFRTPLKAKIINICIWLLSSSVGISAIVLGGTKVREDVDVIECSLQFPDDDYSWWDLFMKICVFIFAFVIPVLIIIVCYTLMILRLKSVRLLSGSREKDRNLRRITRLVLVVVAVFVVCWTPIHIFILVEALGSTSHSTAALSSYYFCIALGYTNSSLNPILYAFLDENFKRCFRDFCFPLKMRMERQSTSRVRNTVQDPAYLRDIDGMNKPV
T4 sequence (P11229 whole entry, species assumed): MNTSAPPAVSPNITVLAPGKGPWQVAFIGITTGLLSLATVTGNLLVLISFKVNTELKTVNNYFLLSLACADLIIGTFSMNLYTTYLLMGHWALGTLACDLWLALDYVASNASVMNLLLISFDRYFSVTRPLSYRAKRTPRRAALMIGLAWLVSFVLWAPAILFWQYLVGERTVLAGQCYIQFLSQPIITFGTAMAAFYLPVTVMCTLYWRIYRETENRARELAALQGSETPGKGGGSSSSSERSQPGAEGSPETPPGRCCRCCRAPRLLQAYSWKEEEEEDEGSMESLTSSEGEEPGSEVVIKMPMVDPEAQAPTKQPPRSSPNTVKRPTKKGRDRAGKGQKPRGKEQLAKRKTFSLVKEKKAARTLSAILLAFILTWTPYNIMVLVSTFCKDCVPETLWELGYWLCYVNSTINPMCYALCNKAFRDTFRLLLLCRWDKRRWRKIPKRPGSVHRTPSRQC
T1 sequence (P43116 whole entry): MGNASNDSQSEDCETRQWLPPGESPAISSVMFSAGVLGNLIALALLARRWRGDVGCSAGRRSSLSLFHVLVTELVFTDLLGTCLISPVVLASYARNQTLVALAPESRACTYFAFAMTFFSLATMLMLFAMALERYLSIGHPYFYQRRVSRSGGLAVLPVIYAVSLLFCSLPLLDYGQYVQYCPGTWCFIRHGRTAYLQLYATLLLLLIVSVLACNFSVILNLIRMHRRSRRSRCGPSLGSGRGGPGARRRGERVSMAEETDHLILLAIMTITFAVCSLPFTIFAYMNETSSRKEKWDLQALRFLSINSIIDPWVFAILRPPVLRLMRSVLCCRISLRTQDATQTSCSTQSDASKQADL
T2 sequence (P35368 whole entry, species assumed): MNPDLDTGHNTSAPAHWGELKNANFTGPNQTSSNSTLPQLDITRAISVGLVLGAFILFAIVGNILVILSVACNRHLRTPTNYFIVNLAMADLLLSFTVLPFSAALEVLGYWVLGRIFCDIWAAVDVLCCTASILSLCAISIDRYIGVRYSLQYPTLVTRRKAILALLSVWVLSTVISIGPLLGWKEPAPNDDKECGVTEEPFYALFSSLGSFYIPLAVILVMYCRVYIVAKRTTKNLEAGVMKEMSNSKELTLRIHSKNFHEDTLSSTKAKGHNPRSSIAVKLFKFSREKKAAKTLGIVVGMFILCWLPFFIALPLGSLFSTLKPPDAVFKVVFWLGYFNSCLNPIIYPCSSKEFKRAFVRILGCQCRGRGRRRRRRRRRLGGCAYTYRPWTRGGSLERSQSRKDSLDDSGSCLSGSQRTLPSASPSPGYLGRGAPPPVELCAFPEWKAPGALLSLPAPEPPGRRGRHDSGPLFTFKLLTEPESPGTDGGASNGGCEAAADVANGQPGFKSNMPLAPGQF
T3 sequence (P30556 whole entry): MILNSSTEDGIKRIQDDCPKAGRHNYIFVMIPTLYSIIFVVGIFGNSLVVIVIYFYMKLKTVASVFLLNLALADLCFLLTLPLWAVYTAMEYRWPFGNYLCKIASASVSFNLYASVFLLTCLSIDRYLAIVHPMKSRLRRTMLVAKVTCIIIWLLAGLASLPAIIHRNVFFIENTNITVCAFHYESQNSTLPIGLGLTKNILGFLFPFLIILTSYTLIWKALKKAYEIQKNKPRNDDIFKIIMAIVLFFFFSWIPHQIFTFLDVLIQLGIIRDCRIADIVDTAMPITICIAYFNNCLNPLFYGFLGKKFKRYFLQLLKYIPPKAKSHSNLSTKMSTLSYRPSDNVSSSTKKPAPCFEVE
T6 sequence (P21728 whole entry, species assumed): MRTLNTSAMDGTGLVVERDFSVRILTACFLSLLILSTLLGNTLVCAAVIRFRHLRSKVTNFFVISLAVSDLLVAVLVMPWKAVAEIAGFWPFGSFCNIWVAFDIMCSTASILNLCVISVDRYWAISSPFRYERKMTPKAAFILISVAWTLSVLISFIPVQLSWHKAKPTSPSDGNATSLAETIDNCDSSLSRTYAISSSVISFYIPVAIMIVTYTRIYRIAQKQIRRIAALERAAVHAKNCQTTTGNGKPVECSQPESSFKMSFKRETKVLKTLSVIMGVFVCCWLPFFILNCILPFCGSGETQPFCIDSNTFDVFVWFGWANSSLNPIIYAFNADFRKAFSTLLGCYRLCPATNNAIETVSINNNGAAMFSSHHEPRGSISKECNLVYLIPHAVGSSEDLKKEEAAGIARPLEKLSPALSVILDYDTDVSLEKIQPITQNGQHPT
T7 sequence (P41143 whole entry, species assumed): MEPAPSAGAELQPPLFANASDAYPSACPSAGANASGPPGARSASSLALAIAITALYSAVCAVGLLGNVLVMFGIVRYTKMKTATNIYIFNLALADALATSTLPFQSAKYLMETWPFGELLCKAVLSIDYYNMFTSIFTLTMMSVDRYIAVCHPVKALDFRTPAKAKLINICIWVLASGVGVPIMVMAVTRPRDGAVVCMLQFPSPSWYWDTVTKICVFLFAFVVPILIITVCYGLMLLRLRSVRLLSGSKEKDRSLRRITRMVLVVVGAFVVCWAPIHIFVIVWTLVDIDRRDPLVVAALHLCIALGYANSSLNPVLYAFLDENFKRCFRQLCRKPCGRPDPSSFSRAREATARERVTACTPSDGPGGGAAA

How did the IC50 [1] turn out when `C[C@H](NC(=O)c1c(Cc2ccc(F)cc2)sc2c1CCOC2)c1ccc(C(=O)O)cc1` [TP-16] was run?
Its IC50 is greater than 10 µM.

What about the IC50 [2] of the same compound?
Its IC50 is greater than 10 µM.

What about the IC50 [3] of the same compound?
The IC50 was greater than 10 µM.

What about the IC50 [4] of the same compound?
The IC50 was greater than 10 µM.

And the IC50 [5]?
Its IC50 is greater than 10 µM.

What about the IC50 [6] of the same compound?
The IC50 was greater than 10 µM.

What about the IC50 [7] of the same compound?
The IC50 was greater than 10 µM.

What about the IC50 [8] of the same compound?
Its IC50 is greater than 10 µM.

And the IC50 [9]?
Its IC50 is greater than 10 µM.

And the “anti-tumor efficacy in BALB/c nude mice” value [10]?
The value was “lost”.

And the “%TGI” value [11]?
Its value is 27.3%.

What about the “effect on cell viability” value [12] of the same compound?
Its value is “did not affect the viability”.

What about the “effect on cell viability” value [13] of the same compound?
Its value is “did not affect the viability”.

And the “effect on cell viability” value [14]?
The value was “did not affect the viability”.

And the “effect on cell viability” value [15]?
Its value is “did not affect the viability”.

And the “effect on cell viability” value [16]?
Its value is “did not affect the viability”.

And the “tumor number (multiplicity) and size” value [17]?
The value was “moderately reduced”.

And the IC50 [18]?
Its IC50 is greater than 10 µM.
